Where two headings read alike, the source gives them in different places.
Legend:
TNF-α = assay: LPS-induced TNF-α secretion in THP-1 cells, ELISA of culture supernatant; format: cell-based, human; details: for TNF-α level, % of the positive control / TNF-α, % of the positive control level: 100 ng/mL LPS; for inhibition at 10 µM: Homo sapiens, THP-1; for TNF-α treatment value, A: relative to control, 5 μM
Experimental: 1) Recoveried and expanded THP-1 cells in a T75 culture flask. The growth medium was 10 milliliters of 10% fetal bovine serun/RPMI1640 (already containing 2 mM glutamine)/1% double antibiotics in each flask. Observed the cells under an invert microscope, and, when the cells were in the logarithmic growth phase, started the following drug treatment experiments; 2) Cultured 2*10e5/mL THP-1 cells in a 96-well culture plate with 100 microliters of growth medium (10% fetal bovine serum/RPMI640/1% double antibiotics) per well, and added 100 ng/ml PMA to incubate for 24 hour; 3) Eluted the non-adherent cells once with 300 microliters of fresh growth medium of 10% fetal bovine serum/RPMI1640/1% double antibiotics; 4) Added 200 microliters of growth medium of 10% fetal bovine serum/RPMI1640/1% double antibiotics, with/without test compound, to pre-incubate the cells at 37° C. for 2 hours; 5) Then added 100 ng/mL lipopolysaccharide (LPS) and incubated at 37° C. for 4 hours: 6) Collected 50 microliters of cell culture supernatant for the detection of the levels of related cytokines by enzyme-linked immunoassay, or stored it in a refrigerator at minus 80 degrees Celsius for future detection; 1) Prepared 1× elution buffer for enzyme-linked immunoassay. Prepared it with ultrapure water: 10× elution buffer mother solution=9:1 in volume ratio for use; 2) Prepared the antibody cocktail for enzyme-linked immunoassay. Prepared it with the antibody diluent (provided by Ab221825):antibody 1:antibody 2=18:1:1 in volume ratio for use. Antibody 1 was a TNF-α capture antibody and Antibody 2 was a TNF-α detector antibody. They were all supplied by kit Ab221825; 3) Prepared a series of concentration gradient samples of TNF-α standard with ultrapure water for the plotting of reaction standard curve and determining the linear range of detection signal; 4) Added 50 microliters of cell culture supernatant/standard and 50 microliters of the above antibody cocktail to a 96-well plate used for enzymatic reaction, sealed it with a film, placed it on a horizontal shaker, and incubated at 400 rpm for 1 hour at room temperature to allow the antibody-antigen complex was fully bound and coupled at the bottom of the well plate; 5) Discarded the supernatant, eluted with 350 microliters of 1× elution buffer/well for 3 times. In the last elution, put the well plate upside down on an absorbent paper and sucked and washed it thoroughly; 6) Added 100 microliters of TMB substrate solution (supplied by Ab221825) to each well, placed them on a horizontal shaker and incubated in the dark at room temperature for 5 minutes at a speed of 400 rpm; 7) Added 100 microliters of reaction stop solution (provided by Ab221825), placed on a horizontal shaker and mix at 400 rpm for 1 minute; 8) Detected the absorbance at 450 nm with a microplate reader.

[1] = test system: mouse psoriasis model induced by Imiquimod; assay: Mouse psoriasis model induced with imiquimod; format: in vivo; details: for relieving of inflammatory thickening of the model right ear: end point of 7-day administration
Experimental: Animal strain: 28 male BALB/c mice, 6-8 weeks old, SPF environment, 12 hours light and dark cycle, 24-26 degrees Celsius. Blank group: no treatment, n=3; […] High-dose compound test group: 3.5 mg/kg drug intraperitoneal injection+5% imiquimod ointment, n=5; Low-dose compound test group: 0.8 mg/kg drug intraperitoneal injection+5% imiquimod ointment, n=5; Combined drugs test group: 0.8 mg/kg drug intraperitoneal injection+0.0025% PGE2 (administered epidermally in 75% ethanol)+5% imiquimod ointment, n=5; Day 0: anesthetized the mouse, shaved the back with an area about 2*3 cm; Day1-7: every other day, measured the mouse body weight, left and right ear thickness, and observed the skin to obtain a score; Day7: killed the mouse, sampled the back skin and fixed in 4% PFA solution for H&E staining; Model Group Induced with Imiquimod: Day 0: anesthetized the mouse, shaved the back with an area about 2*3 cm; Day1-7: every other day, measured the mouse body weight, left and right ear thickness, and observed the skin to obtain a score; […] Massaged moderately against the direction of the hair to help absorption; Day1-7: […] Massaged moderately against the direction of the hair to help absorption; Day7: killed the mouse, sampled the back skin and fixed in 4% PFA solution for H&E staining; Day 0: anesthetized the mouse, shaved the back with an area about 2*3 cm; Day1-7: every other day, measured the mouse body weight, left and right ear thickness, and observed the skin to obtain a score; […] Day1-7: then injected intraperitoneally 3.5 mg/kg in 200 μL sterile DPBS; Day1-7: then applied 62.5 mg of imiquimod ointment on the shaved area on the back of each mouse, applied 250 μg of imiquimod ointment on the inside and outside of the right ear, and massaged moderately against the direction of hair to help absorption; Day7: killed the mouse, sampled the back skin and fixed in 4% PFA solution for H&E staining; Day 0: anesthetized the mouse, shaved the back with an area about 2*3 cm; Day1-7: every other day, measured the mouse body weight, left and right ear thickness, and observed the skin to obtain a score; […] Day1-7: then injected intraperitoneally 0.8 mg/kg in 200 μL sterile DPBS; Day1-7: then applied 62.5 mg of imiquimod ointment on the shaved area on the back of each mouse, applied 250 μg of imiquimod ointment on the inside and outside of the right ear, and massaged moderately against the direction of hair to help absorption; Day7: killed the mouse, sampled the back skin and fixed in 4% PFA solution for H&E staining; Group Treated with Compound in Combination with PGE2: Day 0: anesthetized the mouse, shaved the back with an area about 2*3 cm; Day1-7: every other day, measured the mouse body weight, left and right ear thickness, and observed the skin to obtain a score; Day1-7: […] Day-7: then injected intraperitoneally 0.8 mg/kg in 200 μL sterile DPBS; Day1-7: one hour after PGE2 administration, applied 62.5 mg of imiquimod ointment on the shaved area on the back of each mouse, and applied 250 μg of imiquimod ointment on the inside and outside of the right ear. […] The area was fixed in the disease model and was not considered, and the other three aspects were quantified as follows: 0=asymptomatic, 1=mild, 2=moderate, 3=significant, 4=very significant; Changes of the thickening of the ear; Body weight; Skin histological changes (H&E staining).

[2] = high-dose group 3.5 mg/kg intraperitoneal
[3] = low-dose group 0.8 mg/kg intraperitoneal

## C=C[C@@]1(C)CC(=O)C2(O)[C@@]3(C)C(O)CCC(C)(C)C3[C@H](OC(=O)CCN(C)C)[C@H](OC(C)=O)[C@@]2(C)O1.Cl (stereo partly shown) [6-[3-(dimethylamino)propionyl]forskolin hydrochloride]
TNF-α; 5 μM alone, FIG. 4
  TNF-α level, % of the positive control: 33%
TNF-α; 5 μM alone, FIG. 6
  TNF-α, % of the positive control level: 58%
  reduction in TNF-α levels: 42%
TNF-α; 5 μM used alone, FIG. 4
  reduction in TNF-α level: 67%
TNF-α; 10 μM alone, FIG. 4
  TNF-α level, % of the positive control: 27%
TNF-α; 10 μM alone, FIG. 6
  TNF-α, % of the positive control level: 44%
TNF-α; 10 μM used alone, FIG. 4
  reduction in TNF-α level (inhibitory effect): 73%
TNF-α; 10 μM alone, FIG. 6, read-out: reduction in TNF-α levels (inhibitory effect)
  inhibition at 10 µM: 56%
TNF-α; 10 μM, 100 ng/ml LPS 4 hours, FIG. 1, read-out: inhibition of the TNF-α level of the positive control
  inhibition at 10 µM: ~75%
TNF-α; Table 3
  TNF-α treatment value, A: 33%
TNF-α; Table 4
  TNF-α treatment value, A: 58%
[1]; day 7, compared with the model group, FIG. 20
  thickness of epidermis and stratum corneum of back skin (H&E staining): different degrees of thickness reduction
[1]; [2]
  day of administration on which disease alleviation showed (back skin psoriasis-like index score): 3 days
  relieving of inflammatory thickening of the model right ear: 39%
[1]; [3]
  day of administration on which the effect began (back skin psoriasis-like index score): 5 days
  relieving of inflammatory thickening of the model right ear: 30%

From US20220079915A1, “IMMUNOSUPPRESSIVE PHARMACEUTICAL COMPOSITION AND APPLICATION THEREOF” (Shanghai Archeus Biotech Co., Ltd., priority 2018, published 2022)
